This passage reports Activity and Ki results from ChEMBL document CHEMBL5584335, “Investigating Active Site Binding of Ligands to High and Low Activity Carbonic Anhydrase Enzymes Using Native Mass Spectrometry” (J Med Chem, 2024).

Test [1] has as its target T1, Carbonic anhydrase 3 (Homo sapiens, UniProt P07451). Kind of test: Binding affinity to human recombinant CA III active site expressed in Escherichia coli BL21 (DE3) pLysS cells at 18.18 uM at protein:compound ratio of 1:2 incubated for 30 mins by native mass spectrometry analysis.
The target in test [2] is T1, Carbonic anhydrase 3. Kind of test: Binding affinity to human recombinant CA III assessed as inhibition constant.

Molecules are shown by their SMILES. Active and inactive are the calls of the source. The rule behind the calls is not given here.

A word on the Ki: it is the dissociation constant of the complex between target and ligand, obtained from inhibition or displacement.

T1 sequence (P07451 whole entry): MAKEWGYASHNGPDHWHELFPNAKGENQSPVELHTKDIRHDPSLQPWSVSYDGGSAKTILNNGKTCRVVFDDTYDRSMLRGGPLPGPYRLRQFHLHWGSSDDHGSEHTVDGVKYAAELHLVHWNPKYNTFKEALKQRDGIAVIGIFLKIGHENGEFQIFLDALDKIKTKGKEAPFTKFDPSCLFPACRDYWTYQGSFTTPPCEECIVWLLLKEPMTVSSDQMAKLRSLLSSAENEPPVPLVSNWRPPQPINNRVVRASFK

In the case of `CC1Cc2ccccc2N1NC(=O)c1ccc(Cl)c(S(N)(=O)=O)c1` (stereo unspecified), the outcome at Carbonic anhydrase 3 [1] was inactive.

Turning to `Cc1ccc(-c2cc(C(F)(F)F)nn2-c2ccc(S(N)(=O)=O)cc2)cc1`, the outcome on Carbonic anhydrase 3 [1] was inactive.

With `Cc1onc(-c2ccccc2)c1-c1ccc(S(N)(=O)=O)cc1`, the result on Carbonic anhydrase 3 [1] was inactive.

For `NS(=O)(=O)c1cc(C(=O)O)c(NCc2ccco2)cc1Cl`, the result at Carbonic anhydrase 3 [1] was inactive.

With `NS(=O)(=O)c1ccc(N2CCCCS2(=O)=O)cc1`, at Carbonic anhydrase 3 [1], the result was inactive.

In the case of `CCCCNc1cc(C(=O)O)cc(S(N)(=O)=O)c1Oc1ccccc1` [BUMETANIDE], the outcome at Carbonic anhydrase 3 [1] was inactive. The inhibition constant (Ki) at Carbonic anhydrase 3 [2] was 3400 µM.

Regarding `NS(=O)(=O)c1cc2c(cc1Cl)NCNS2(=O)=O` [HYDROCHLOROTHIAZIDE], the outcome at Carbonic anhydrase 3 [1] was inactive. Further, the Ki at Carbonic anhydrase 3 [2] was 790 µM.

Turning to `Cc1ccccc1N1C(=O)c2cc(S(N)(=O)=O)c(Cl)cc2NC1C` (stereo unspecified) [METOLAZONE], the result at Carbonic anhydrase 3 [1] was inactive. At Carbonic anhydrase 3 [2], the inhibitory constant (Ki) is 610 µM.
